Measured values taken from PMC9697349, “Mouse Pharmacokinetics and In Vitro Metabolism of SH-11037 and SH-11008, Synthetic Homoisoflavonoids for Retinal Neovascularization” (Pharmaceutics, 2022).

Columns and labels:
[1] = Mouse pharmacokinetics, single p.o. dose; assay type: in vivo; conditions: mice
Description: Pharmacokinetic studies were performed with male ICR mice (8 weeks old, 30~35 g) purchased from Koatech Co. (Kyunggi, Korea) as reported previously. Test compounds were dissolved at 1 mg/mL in DMA/Tween 80/20% aqueous HPβCD (10/10/80 vol%) to prepare the dosing solutions. SH-11037 was administered by oral (p.o.) gavage at a dose of 10 mg/kg and a dose volume of 10 mL/kg (equimolar to 6 mg/kg of SH-11008) or intravenously (i.v.) via tail vein injection at a dose of 5 mg/kg and a dose volume of 5 mL/kg (equimolar to 3 mg/kg of SH-11008), respectively. […] Plasma samples were analyzed as described below in Section 2.6.1.
Calibration standards and quality control (QC) samples were prepared by spiking 15 μL of blank plasma with 5 μL of analyte working solution prepared in 50 vol% aqueous CH3CN. […] The lower limit of quantitation of SH-11037 and SH-11008 were 0.24 and 0.48 ng/mL, respectively, with a signal-to-noise ratio based on root mean square noise > 10. […] The precision and accuracy of the analytical method were evaluated with the QC samples prepared in triplicate at 5, 250, and 400 ng/mL for both of SH-11037 and SH-11008: the coefficient of variation (%CV) and the relative error (%RE) were in the ranges of −21.23~5.72% and 1.47~12.30% for SH-11037 and −22.85~4.96% and 1.2~13.8% for SH-11008, respectively. […]

[2] = Stability of SH-11037 in mouse plasma; assay type: in vitro ADME; conditions: ICR, pH 7.4, SH-11037 1 µM, 37 °C, read-out: half-life (t1/2) of hydrolysis to SH-11008
Description: SH-11037 (1 μM) was incubated in triplicate in 0.1 M phosphate buffer (pH 7.4) or in mouse, dog, and human plasma to investigate its stability. SH-11037 (40 μM) in 50 vol% aqueous CH3CN was mixed with 0.1 M phosphate buffer (pH 7.4) or plasma diluted 3-fold with 0.1 M phosphate buffer (pH 7.4) to a final volume of 160 μL and a final concentration of 1 μM. The resulting solutions were then incubated at 37 °C in a shaking water bath. The incubations were terminated at selected times by adding 160 µL of ice-cold CH3CN containing glipizide (500 ng/mL) as the internal standard (IS). The resulting mixture was vortexed, sonicated, and centrifuged at 3000× g for 20 min. Aliquots of the supernatant were subjected to LC-MS/MS analysis described below in Section 2.6.2.
The LC-MS/MS system consisted of Agilent 1290 Infinity HPLC system and Agilent 6530 Accurate-Mass Quadrupole Time-of-Flight (Q-TOF) mass spectrometer equipped with dual AJS ESI ion source (Agilent Technologies Korea, Seoul, Korea). Chromatographic separation was performed on an Agilent Eclipse Plus C18 column (2.1 × 100 mm, 3.5 μm) with a Phenomenex Security Guard C18 guard column (4 × 20 mm) maintained at 40 °C. The mobile phase consisted of 0.1% formic acid in deionized water (A) and 0.1% formic acid in CH3CN (B): 0~2 min 5% B, 2~7 min to 95% B, and 7~10 min 95% B. Total run time including a 5 min equilibration time was 15 min. […]

Row | Compound | plasma levels of SH-11008 ([1]; after single p.o. dose of SH-11008 6 mg/kg, BQL) [ng/mL] | plasma level of SH-11037 ([1]; throughout the time course after single p.o. dose of SH-11037 10 mg/kg) | half-life at 1 µM [2] [s]
1 | COc1ccc(CC2COc3cc(OC)c(OC)c(OC)c3C2=O)cc1O (stereo not drawn) [SH-11008] | < 0.48 |  | 
2 | COc1ccc(CC2COc3cc(OC)c(OC)c(OC)c3C2=O)cc1OC(=O)[C@H](Cc1ccccc1)NC(=O)OC(C)(C)C (stereo partly drawn) [SH-11037] |  | BQL | 1.08
